According to patent publication US20230406831A1, “COMPOUNDS AND METHODS OF INHIBITING BACTERIAL CHAPERONIN SYSTEMS” (THE TRUSTEES OF INDIANA UNIVERSITY, priority 2020, published 2023):
pEC50: −log10 of the molar value. Read-outs that look alike come from different tables or passages of the source.

What was measured:
S. aureus = S. aureus bacterial proliferation assay; format: cell-based; conditions: cation adjusted BHI media, OD600 at 6-8 h; for pEC50: Staphylococcus aureus, read-out: S. aureus Proliferation EC50
Summary of the method: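 Growth in BHI with 25 mg/L Ca2+ and 12.5 mg/L Mg2+; log-phase cultures diluted to OD600 0.017 and exposed to compounds at 100 μM–46 nM (3-fold series). Stagnant 37 °C incubation, OD600 read at 6–8 h, corrected with bacteria-free plates; EC50 by variable-slope nonlinear regression.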

[1] = HEK 293 kidney cell viability / cytotoxicity assay (Alamar Blue); format: cell-based; conditions: human
[2] = Table 3, 48 h incubation, Alamar Blue, read-out: HEK 293 Kidney Cell Viability CC50
[3] = HEK 293 kidney cells, Table 2, 48 h incubation, Alamar Blue, read-out: HEK 293 Kidney Cell Viability CC50
[4] = Table 2, 48 h incubation, Alamar Blue, read-out: HEK 293 Kidney Cell Viability CC50
[5] = HEK 293 kidney cells, Table 1, 48 h incubation, Alamar Blue, read-out: HEK 293 Kidney Cell Viability CC50
[6] = HEK 293 kidney cells, Table 3, 48 h incubation, Alamar Blue, read-out: HEK 293 Kidney Cell Viability CC50

SMILES	pEC50 (S. aureus; Table 3)	S. aureus Proliferation EC50 (S. aureus; Table 2) [µM]	CC50 at 48 h [1, 6] [µM]	also measured
O=C(Nc1ccc(Oc2ccc(Cl)cc2)cc1)c1cc(Cl)ccc1O [Compound 89, 5-chloro-N-(4-(4-chlorophenoxy)phenyl)-2-hydroxybenzamide]	6.44	–	–	CC50 at 48 h [1, 2]: 15 µM
Cc1cc(C(C#N)c2ccc(Cl)cc2)c(Cl)cc1NC(=O)c1ccc(N)cc1 (stereo not shown) [Compound 72, 4-amino-N-(5-chloro-4-((4-chlorophenyl)(cyano)methyl)-2-methylphenyl)benzamide]	–	> 100	–	CC50 at 48 h [1, 3]: 53 µM
Cc1ccc(O)c(C(=O)Nc2cc(Cl)c(C(C#N)c3ccc(Cl)cc3)cc2C)c1 (stereo not shown) [Compound 60, N-(5-chloro-4-((4-chlorophenyl)(cyano)methyl)-2-methylphenyl)-2-hydroxy-5-methylbenzamide]	–	1.3	–	CC50 at 48 h [1, 4]: 40 µM
O=C(Nc1ccc(Sc2nc3ccccc3s2)c(Cl)c1)c1cc(Br)cc(Br)c1O [Compound 1, reference compound]	–	–	–	pEC50 (S. aureus; Table 1): 6.52; CC50 at 48 h [1, 5]: 73 µM
COc1ccc(Cl)cc1C(=O)Nc1ccc(Oc2ccc(Cl)cc2)cc1 [Compound 88, 5-chloro-N-(4-(4-chlorophenoxy)phenyl)-2-methoxybenzamide]	< 4.00	–	> 100	–
Cc1cc(C(C#N)c2ccc(Cl)cc2)c(Cl)cc1NC(=O)c1cc(Br)ccc1O (stereo not shown) [Compound 50, 5-bromo-N-(5-chloro-4-((4-chlorophenyl)(cyano)methyl)-2-methylphenyl)-2-hydroxybenzamide]	–	–	–	pEC50 (S. aureus; Table 2): 6.96; CC50 at 48 h [1, 4]: 3.4 µM
Cc1cc(C(C#N)c2ccc(Cl)cc2)c(Cl)cc1NC(=O)c1cccc(O)c1 (stereo not shown) [Compound 65, N-(5-chloro-4-((4-chlorophenyl)(cyano)methyl)-2-methylphenyl)-3-hydroxybenzamide]	–	1.8	–	CC50 at 48 h [1, 3]: 44 µM
COc1ccc(Cl)cc1C(=O)Nc1ccc(C(=O)O)cc1 [Compound 108, 4-(5-chloro-2-methoxybenzamido)benzoic acid]	< 4.00	–	> 100	–
COc1ccc(Cl)cc1C(=O)Nc1ccc(Oc2ccccc2)c(Cl)c1 [Compound 90, 5-chloro-N-(3-chloro-4-phenoxyphenyl)-2-methoxybenzamide]	< 4.00	–	> 100	–
COc1ccc(Cl)cc1C(=O)Nc1ccc(O)cc1 [Compound 114, 5-chloro-N-(4-hydroxyphenyl)-2-methoxybenzamide]	< 4.00	–	> 100	–
COc1ccc(Cl)cc1C(=O)Nc1ccccc1 [Compound 116, 5-chloro-2-methoxy-N-phenylbenzamide]	< 4.00	–	> 100	–
O=C(Nc1ccc([N+](=O)[O-])cc1Cl)c1cc(Cl)ccc1O [Niclosamide, reference compound]	–	–	–	pEC50 (S. aureus; Table 1): 7.13; CC50 at 48 h [1, 5]: 1.7 µM
CC(=O)Nc1cc(Cl)c(C(C#N)c2ccc(Cl)cc2)cc1C (stereo not shown) [Compound 83, N-(5-chloro-4-((4-chlorophenyl)(cyano)methyl)-2-methylphenyl)acetamide]	–	> 100	–	CC50 at 48 h [1, 3]: 83 µM
Cc1cc(C(C#N)c2ccc(Cl)cc2)c(Cl)cc1NC(=O)c1ccccc1Br (stereo not shown) [Compound 73, 2-bromo-N-(5-chloro-4-((4-chlorophenyl)(cyano)methyl)-2-methylphenyl)benzamide]	–	> 100	–	CC50 at 48 h [1, 4]: > 100 µM
Cc1cc(C(C#N)c2ccc(Cl)cc2)c(Cl)cc1NC(=O)c1cccc(Br)c1 (stereo not shown) [Compound 74, 3-bromo-N-(5-chloro-4-((4-chlorophenyl)(cyano)methyl)-2-methylphenyl)benzamide]	–	> 100	–	CC50 at 48 h [1, 3]: > 100 µM
COc1cc(Cl)ccc1C(=O)Nc1cc(Cl)c(C(C#N)c2ccc(Cl)cc2)cc1C (stereo not shown) [Compound 55, 4-chloro-N-(5-chloro-4-((4-chlorophenyl)(cyano)methyl)-2-methylphenyl)-2-methoxybenzamide]	–	> 100	–	CC50 at 48 h [1, 4]: > 100 µM
Cc1cc(C(C#N)c2ccc(Cl)cc2)c(Cl)cc1NC(=O)c1cc(I)cc(I)c1O (stereo not shown) [Closantel, reference compound]	–	–	–	pEC50 (S. aureus; Table 1): 6.32; CC50 at 48 h [1]: 79 µM
COC(=O)c1ccc(NC(=O)c2cc(Cl)ccc2O)cc1 [Compound 107, methyl 4-(5-chloro-2-hydroxybenzamido)benzoate]	6.03	–	11	–
O=C(Nc1ccc(CCc2ccccc2)cc1)c1cc(Cl)ccc1O [Compound 101]	4.08	–	4.3	–
COc1c(Br)cc(Br)cc1C(=O)Nc1cc(Cl)c(C(C#N)c2ccc(Cl)cc2)cc1C (stereo not shown) [Compound 45, 3,5-dibromo-N-(5-chloro-4-((4-chlorophenyl)(cyano)methyl)-2-methylphenyl)-2-methoxybenzamide]	–	> 100	–	CC50 at 48 h [1, 4]: 66 µM
COc1c(Cl)cc(Cl)cc1C(=O)Nc1cc(Cl)c(C(C#N)c2ccc(Cl)cc2)cc1C (stereo not shown) [Compound 51, 3,5-dichloro-N-(5-chloro-4-((4-chlorophenyl)(cyano)methyl)-2-methylphenyl)-2-methoxybenzamide]	–	> 100	–	CC50 at 48 h [1, 4]: 83 µM
O=C(Nc1ccc(Cc2ccccc2)cc1)c1cc(Cl)ccc1O [Compound 99, N-(4-benzylphenyl)-5-chloro-2-hydroxybenzamide]	< 4.00	–	–	CC50 at 48 h [1, 2]: 19 µM
O=C(Nc1ncc([N+](=O)[O-])s1)c1ccccc1O [Tizoxanide, reference compound]	–	–	–	pEC50 (S. aureus; Table 1): 5.01; CC50 at 48 h [1, 5]: 31 µM
